Measurements reported in ChEMBL document CHEMBL1201862, “PubChem BioAssay data set” (2004).
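Dose response: 5 concentrations. Exposure: 48 h. Format: 96-well plates. Endpoint: linear interpolation; highest concentration if not reached. GI50 marks 50% less growth.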 Calls of active or inactive are those of the source. Rule as the data show it: active = GI50 up to about 1.1 µM and inactive = higher.

Tests used:
Assay in all cases: growth of human tumour cells (NCI), 48 h
HL-60 = test system: HL-60
EKVX = test system: EKVX
UO-31 = test system: UO-31
HCC 2998 = test system: HCC 2998
OVCAR-8 = test system: OVCAR-8
NCI-H23 = test system: NCI-H23
OVCAR-4 = test system: OVCAR-4
SF-295 = test system: SF-295
SF-268 = test system: SF-268
K562 = test system: K562
LOX IMVI = test system: LOX IMVI
U-251 = test system: U-251
COLO 205 = test system: COLO 205
SNB-75 = test system: SNB-75
OVCAR-3 = test system: OVCAR-3
UACC-257 = test system: UACC-257
TK-10 = test system: TK-10
RPMI-8226 = test system: RPMI-8226

Compound | GI50 (HL-60) | GI50 (EKVX) | GI50 (UO-31) | GI50 (HCC 2998) | GI50 (OVCAR-8) | GI50 (NCI-H23) | GI50 (OVCAR-4) | GI50 (SF-295) | GI50 (SF-268) | GI50 (K562) | GI50 (LOX IMVI) | GI50 (U-251) | GI50 (COLO 205) | GI50 (SNB-75) | GI50 (OVCAR-3) | GI50 (UACC-257) | GI50 (TK-10) | GI50 (RPMI-8226)
O=C1CN=C(c2ccccc2)c2ccncc2N1 | > 100 µM (inactive) | > 100 µM (inactive) | > 100 µM (inactive) | > 100 µM (inactive) | > 100 µM (inactive) | > 100 µM (inactive) | > 100 µM (inactive) | > 100 µM (inactive) | > 100 µM (inactive) | > 100 µM (inactive) | > 100 µM (inactive) | > 100 µM (inactive) | > 100 µM (inactive) | > 100 µM (inactive) | > 100 µM (inactive) | 26.6 µM (inactive) | 33.3 µM (inactive) | 
COc1ccc(-c2nc(Sc3c([N+](=O)[O-])ncn3C)n[nH]2)cc1 |  | 20.7 µM (inactive) | 5.13 µM (inactive) | 8.87 µM (inactive) | 2.44 µM (inactive) | 1.77 µM (inactive) | 8.24 µM (inactive) | 3.33 µM (inactive) | 3.94 µM (inactive) | 2.99 µM (inactive) | 2.72 µM (inactive) | 2.25 µM (inactive) | 1.82 µM (inactive) | 4.92 µM (inactive) | 1.94 µM (inactive) | 3.48 µM (inactive) | 6.17 µM (inactive) | 3.66 µM (inactive)
COC(=O)C1(c2ccc(OC)cc2)NC(c2ccccc2)C2C(=O)N(c3ccc(OC)cc3)C(=O)C21 (configuration not stated) | > 100 µM (inactive) | > 100 µM (inactive) | > 100 µM (inactive) | > 100 µM (inactive) | > 100 µM (inactive) | > 100 µM (inactive) | > 100 µM (inactive) | > 100 µM (inactive) | > 100 µM (inactive) | > 100 µM (inactive) | > 100 µM (inactive) | > 100 µM (inactive) | > 100 µM (inactive) | > 100 µM (inactive) |  | > 100 µM (inactive) | > 100 µM (inactive) | > 100 µM (inactive)
CC(=O)c1c2c(cc3c1CC1(C3)Cc3cc4c(c(C(=O)O)c3C1)CCC4)CCC2 (configuration not stated) | 16.7 µM (inactive) |  | 26.9 µM (inactive) | 37.8 µM (inactive) | 41 µM (inactive) | 26.2 µM (inactive) | 49.1 µM (inactive) | 38.9 µM (inactive) | 36.8 µM (inactive) | 32.6 µM (inactive) | 32.4 µM (inactive) | 26.2 µM (inactive) | 24.7 µM (inactive) | 69.8 µM (inactive) | 19.7 µM (inactive) | 45 µM (inactive) | 42.3 µM (inactive) | 
C/C(=N\O)C(CN(C)C)C(c1ccccc1)c1c(O)c2ccccc2oc1=O (configuration not stated) | > 100 µM (inactive) | > 100 µM (inactive) | > 100 µM (inactive) | > 100 µM (inactive) | > 100 µM (inactive) | > 100 µM (inactive) | > 100 µM (inactive) | > 100 µM (inactive) | > 100 µM (inactive) | > 100 µM (inactive) | > 100 µM (inactive) | > 100 µM (inactive) | > 100 µM (inactive) | > 100 µM (inactive) |  | > 100 µM (inactive) | > 100 µM (inactive) | > 100 µM (inactive)
CN(c1ccccc1)c1nc(=[N+]2CCCC2)ss1.[O-][Cl+3]([O-])([O-])[O-] | > 100 µM (inactive) | > 100 µM (inactive) | > 100 µM (inactive) | > 100 µM (inactive) | > 100 µM (inactive) |  | > 100 µM (inactive) |  | > 100 µM (inactive) | 74.5 µM (inactive) |  | > 100 µM (inactive) | 11.1 µM (inactive) | > 100 µM (inactive) | > 100 µM (inactive) | > 100 µM (inactive) | > 100 µM (inactive) | > 100 µM (inactive)
CN(C)C(=N)NC(=S)N(C)C | > 100 µM (inactive) | > 100 µM (inactive) | > 100 µM (inactive) | > 100 µM (inactive) | > 100 µM (inactive) | > 100 µM (inactive) | > 100 µM (inactive) | > 100 µM (inactive) | > 100 µM (inactive) | > 100 µM (inactive) | > 100 µM (inactive) | > 100 µM (inactive) |  | > 100 µM (inactive) |  | > 100 µM (inactive) | > 100 µM (inactive) | > 100 µM (inactive)
Cc1ccccc1NC(=O)C1C(=O)N(c2ccccc2C)C(=O)/C1=N\NC(N)=S (configuration not stated) | > 100 µM (inactive) | > 100 µM (inactive) | > 100 µM (inactive) |  |  | > 100 µM (inactive) |  | > 100 µM (inactive) | > 100 µM (inactive) | > 100 µM (inactive) | > 100 µM (inactive) | > 100 µM (inactive) |  | > 100 µM (inactive) | > 100 µM (inactive) | > 100 µM (inactive) | > 100 µM (inactive) | > 100 µM (inactive)
CCOC(=O)[C@H]1Nc2ccc(C)cc2C2c3ccccc3CC21 (some centres not stated) |  | > 100 µM (inactive) | > 100 µM (inactive) | > 100 µM (inactive) | > 100 µM (inactive) | > 100 µM (inactive) | > 100 µM (inactive) | 74.1 µM (inactive) | > 100 µM (inactive) | > 100 µM (inactive) | > 100 µM (inactive) | > 100 µM (inactive) | > 100 µM (inactive) | 46.1 µM (inactive) | > 100 µM (inactive) | 30.6 µM (inactive) | > 100 µM (inactive) | > 100 µM (inactive)
N#Cc1ccc(C2NN=CC23C(=O)c2ccccc2OC3c2ccccc2)cc1 (configuration not stated) | 59.7 µM (inactive) | 21.1 µM (inactive) | 19.2 µM (inactive) | 35.7 µM (inactive) | 42.4 µM (inactive) | 30.1 µM (inactive) | 33.8 µM (inactive) | 34.4 µM (inactive) | 52.4 µM (inactive) | 33.5 µM (inactive) | 30.9 µM (inactive) | 23.8 µM (inactive) | 18.8 µM (inactive) |  | 30.4 µM (inactive) | 28 µM (inactive) | 25.4 µM (inactive) | 20.8 µM (inactive)
Nc1cc[nH]c(=O)n1 | > 100 µM (inactive) | > 100 µM (inactive) | > 100 µM (inactive) |  | > 100 µM (inactive) |  | > 100 µM (inactive) | > 100 µM (inactive) | > 100 µM (inactive) | > 100 µM (inactive) | > 100 µM (inactive) | > 100 µM (inactive) | > 100 µM (inactive) | > 100 µM (inactive) | > 100 µM (inactive) | > 100 µM (inactive) | > 100 µM (inactive) | > 100 µM (inactive)
CC(=O)Oc1cc(Cl)c(OC(C)=O)c2c(OC(C)=O)c(C)c(O[Si](C)(C)C(C)(C)C)cc12 | 2.84 µM (inactive) | 18.7 µM (inactive) | 13.5 µM (inactive) | 4.46 µM (inactive) | 2.52 µM (inactive) | 4.18 µM (inactive) | 13.2 µM (inactive) | 11 µM (inactive) | 11.5 µM (inactive) | 3.22 µM (inactive) | 4.01 µM (inactive) | 2.32 µM (inactive) | 15.1 µM (inactive) |  | 15.6 µM (inactive) | 3.23 µM (inactive) | 5.31 µM (inactive) | 2.93 µM (inactive)
CC(=O)CC(=O)ON(C)C(=O)Cc1ccccc1 | > 100 µM (inactive) |  | > 100 µM (inactive) | > 100 µM (inactive) | > 100 µM (inactive) | > 100 µM (inactive) | > 100 µM (inactive) | > 100 µM (inactive) | > 100 µM (inactive) | > 100 µM (inactive) | > 100 µM (inactive) | > 100 µM (inactive) | > 100 µM (inactive) | > 100 µM (inactive) | > 100 µM (inactive) | > 100 µM (inactive) | > 100 µM (inactive) | > 100 µM (inactive)
COc1cccc(OC)c1C(=O)OCc1ccccc1 | > 100 µM (inactive) | > 100 µM (inactive) |  |  | > 100 µM (inactive) | > 100 µM (inactive) | > 100 µM (inactive) | > 100 µM (inactive) | > 100 µM (inactive) | > 100 µM (inactive) |  | > 100 µM (inactive) | > 100 µM (inactive) | > 100 µM (inactive) | > 100 µM (inactive) | > 100 µM (inactive) | > 100 µM (inactive) | > 100 µM (inactive)
O=C(Cn1ccnc1[N+](=O)[O-])c1ccc(F)cc1 | > 100 µM (inactive) | > 100 µM (inactive) | > 100 µM (inactive) |  | > 100 µM (inactive) | > 100 µM (inactive) | > 100 µM (inactive) | > 100 µM (inactive) | > 100 µM (inactive) | > 100 µM (inactive) | > 100 µM (inactive) | > 100 µM (inactive) | > 100 µM (inactive) | > 100 µM (inactive) | > 100 µM (inactive) | > 100 µM (inactive) | > 100 µM (inactive) | > 100 µM (inactive)
C/C(=N/Nc1ccc([N+](=O)[O-])cc1[N+](=O)[O-])C(CC(C(=O)NCc1ccccc1)/C(C)=N\Nc1ccc([N+](=O)[O-])cc1[N+](=O)[O-])C(=O)NCc1ccccc1 (configuration not stated) | < 0.01 µM (active) | 12.7 µM (inactive) | 2.39 µM (inactive) | 13.2 µM (inactive) | 2.14 µM (inactive) | 13.3 µM (inactive) | 2.4 µM (inactive) | 5.89 µM (inactive) | 4.42 µM (inactive) |  |  | 3.25 µM (inactive) | 13.5 µM (inactive) | 2.96 µM (inactive) | 11.3 µM (inactive) | 5.21 µM (inactive) |  | 14.7 µM (inactive)
N#CC1=C(c2ccccc2)NNC(c2ccc(Cl)cc2)CC1=O (configuration not stated) | 17.6 µM (inactive) |  |  | 56.6 µM (inactive) |  | 73.6 µM (inactive) | 42.9 µM (inactive) | 24.6 µM (inactive) | 50.8 µM (inactive) |  | 32.8 µM (inactive) | 57.8 µM (inactive) |  | 14.8 µM (inactive) |  | 45 µM (inactive) | > 100 µM (inactive) | 29.9 µM (inactive)
